The record followed here is patent publication US20080318892A1, “METHODS AND FORMULATIONS FOR PROTECTING CELLS, AND FOR TREATING DISEASES AND CONDITIONS BY OPTIMIZING THE INTRACELLULAR CONCENTRATION OF NAD” (priority 2007, published 2008).

One assay has as its target T1, Nampt (Homo sapiens, UniProt P43490).
T1 construct: endogenous in cells; host or cells: human vascular SMCs (primary and HITC6), whole cell lysates
As to the kind of experiment: Nicotinamide phosphoribosyltransferase (Nampt/PBEF) activity in SMC lysates, [14C]nicotinamide to NMN. It is filed as cell-based. The settings on record: human Nampt cDNA by retrovirus. The procedure: Nicotinamide Phosphoribosyltransferase Activity. […] Labelled acetone-precipitable nicotinamide mononucleotide was quantified by scintillation counting.
Assessment of Nicotinamide Phosphoribosyltransferase Activity. […] Briefly, SMCs were lysed in buffer containing 10 mM NaH2PO4/Na2HPO4, at pH 8.8. Cell lysates were incubated with 0.5 μM [carbonyl-^14C]nicotinamide and 0.5 mM phosphoribosylpyrophosphate for 4 h on a rotating rocker at 37° C.

For a further assay, the system named is SIRT1. Description: SIRT1 deacetylase activity in live SMCs (Fluor de Lys-SIRT1 substrate, TSA-independent). In kind it is cell-based, human. The conditions noted are these: SMCs overexpressing Nampt; p=0.03, n=4. How it is done: In vivo assessment of SIRT1 deacetylase activity. Cell-based assessment of SIRT1-like enzymatic activity was performed using the Fluor de lys-SIRT1 substrate (Biomol, Plymouth Meeting, Pa.), as previously described (de Boer, 2006). SMCs in phenol-red free M199 with 5% FBS were incubated for 2 h with 5 μM TSA followed by addition of the fluorogenic substrate for 4 h. Signal was quantified by spectrofluorimetry (Wallac, Wellesley, Mass.) and normalized to total protein content.
Assessment of SIRT1 Deacetylase Activity. SIRT1 deacetylase activity was quantified in live cells as previously reported (de Boer et al, 2006). SMCs cultured in phenol red-free M199 were incubated without serum for 2 h with 1 μM trichostatin A (Sigma, St. Louis, Mo., USA) followed by addition of 25 μM Fluor-de-Lys-SIRT1 fluorogenic substrate (Biomol, Plymouth Meeting, Pa., USA) for 4 h. Media containing fluorogenic substrate and reaction product was incubated with an equal volume of SIRT1 assay buffer containing 2 mM nicotinamide and developer (Biomol, Plymouth Meeting, Pa., USA). Signal was quantified by spectrofluorometry (Wallac VICTOR-1420, PerkinElmer Life Science, Waltham, Mass., USA) and normalized to total protein content

Assay [1] has as its system human aortic endothelial cells. As to the kind of experiment: Longevity and genomic stability (tetraploidy) of human aortic endothelial cells under glucose stress. It is filed as cell-based. The settings on record: for longevity: cells overexpressing NamPT. The source says:
Generation of Nampt-overexpressing HAEC populations. HAEC were infected with retrovirus encoding an eGFP-Nampt fusion protein. A control population was infected with eGFP alone. Transduced HAEC were FACS selected for low (eGFP-Namptlo) and high (eGFP-Nampthi) levels of transgene expression based on GFP fluorescence. Control cells were selected to achieve eGFP expression (eGFP+) at a level similar to the eGFP-Namptlo cells. Levels of GFP fluorescence were confirmed by microscopy.
Assessment of longevity and genomic stability. Triplicate cell populations were plated at 1000 cells/cm2 and were serially subcultured at 80% confluence until growth curves reached plateau. Population doublings were calculated using the standard formula. At certain time points cells were harvested, fixed, and DNA content was analyzed. Tetraploid cells were counted as a proportion of the total population using ModFit software.

A further assay relates to HITB5 SMC's. As to the kind of experiment: SMC proliferation (cell accumulation over 11 days). It is filed as cell-based, human. The settings on record: PBEF-overexpressing HITB5 SMCs, 5% serum, p<0.01 vs EGFP control. How it is done:
Cell Proliferation, DNA Synthesis, and Apoptosis were also evaluated. To assess SMC proliferation, cells were plated at a density of 3000 cells per cm^2 and cultured in M199 containing 5% FBS. Triplicate wells were harvested at the designated times and counted using a hemacytometer. To quantify DNA synthesis, cells in log-phase growth were incubated for 12 hours with [^3H]thymidine (10 μCi/mL) and TCA-precipitable counts determined as described (5). Thymidine incorporation was expressed relative to DNA content, quantified by spectrofluorimetry of an aliquot of cell lysate incubated with 500 μg/ml Hoechst 33258. Apoptosis was assessed in SMCs seeded on glass coverslips by in situ end-labeling of DNA fragments using terminal deoxynucleotide transferase and fluorescein 12-dUTP (Promega) (5). Cells were fixed with 4% paraformaldehyde and counterstained with Hoechst 33258.

Another assay has as its system HITC6 SMCs. As to the kind of experiment: Senescence-associated beta-galactosidase activity / senescence-free survival. In kind it is cell-based, human. How it is done:
Senescence-associated β-Galatosidase Activity Assay. SMCs on glass coverslips at approximately 70% confluence were fixed in 2% formaldehyde/0.2% glutaraldehyde in PBS for 3 minutes and incubated with X-gal-containing reaction mixture, as previously described (Dimri, 1995). Washed cells were stained with Hoechst 33258 (2.5 μg/ml) and the proportion of senescence-associated β-galactosidase (SA β-Gal)-positive cells quantified from 10 microscope fields of view (Olympus BX51, ×20 objective, approximately 1200 cells). Senescence-free survival was determined using Kaplan-Meier analysis of survival vs. replicative age.
Senescence-associated Beta-galactosidase Activity. Senescence-associated beta-galactosidase (SA-β-gal) activity was determined as previously described (Dimri et al, 1995). Briefly, SMCs were fixed in PBS containing 2% formaldehyde/0.2% glutaraldehyde for 3 min at room temperature. Fixed cells were then incubated for 4-6 h at 37° C. with SA-β-gal stain solution containing 150 mM NaCl, 2 mM MgCl, 40 mM citrate, 5 mM potassium ferrocyanide, 5 mM potassium ferricyanide, and 1 mg/ml of 5-bromo-4-chloro-3-indolyl-β-D-galactopyranoside (X-gal) (Invitrogen, Carlsbad, Calif., USA), at pH 6.0. SMCs were counterstained with 2.5 μg/ml Hoechst 33258 to detect cell nuclei. The proportion of SA-β-gal activity positive cells was quantified using light and fluorescence microscopy (Olympus BX51, Center Valley, Pa., USA).

T1 sequence (P43490 whole entry): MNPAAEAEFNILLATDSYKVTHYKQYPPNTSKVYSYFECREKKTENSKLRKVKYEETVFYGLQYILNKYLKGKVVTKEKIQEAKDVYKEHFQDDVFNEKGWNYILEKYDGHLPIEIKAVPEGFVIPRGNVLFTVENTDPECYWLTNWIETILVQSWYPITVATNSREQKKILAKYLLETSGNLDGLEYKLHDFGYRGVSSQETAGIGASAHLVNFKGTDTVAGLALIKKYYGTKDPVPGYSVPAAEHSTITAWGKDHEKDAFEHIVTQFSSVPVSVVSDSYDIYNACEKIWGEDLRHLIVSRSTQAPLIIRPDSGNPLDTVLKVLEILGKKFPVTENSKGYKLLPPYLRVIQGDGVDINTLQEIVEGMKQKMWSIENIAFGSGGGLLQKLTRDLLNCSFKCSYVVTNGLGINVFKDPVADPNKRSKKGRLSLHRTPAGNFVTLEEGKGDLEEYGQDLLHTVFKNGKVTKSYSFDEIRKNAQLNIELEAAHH

As to “PBEF: 52-55 kD protein, rate-limiting enzyme for NAD+ biosynthesis from nicotinamide; tested by retroviral cDNA overexpression in cells”, in the assay with Nampt, the “increase in Nampt activity in stably transduced SMCs” value turned out to be 7.1±3.1 fold. In addition, in the assay on SIRT1, the “increase in SIRT1 activity” value is reported as 86±4%. In addition, the “age- or high glucose-induced tetraploidy” value in assay [1] (Nampt overexpressing cells) is listed as “no occurrence”. In addition, the figures for the longevity entry in assay [1] (glucose stress (30 mM glucose)) and in assay [1] (normal glucose (5 mM)) were “significantly augmented longevity” and “mildly improved longevity”, respectively. The substance further yielded a doubling time with HITB5 SMC's of 5.4 days. Moreover, in the assay on HITC6 SMCs (PBEF-overexpressing SMCs, p<0.0001), the “senescence-free survival (Kaplan-Meier) vs vector-infected cells” value was “markedly extended”. The “reduction in senescent SMCs” value in the assay on HITC6 SMCs (late-passage (37th) PBEF-overexpressing SMCs, p=0.003) was found to be 19±2%.
